According to the NIST ThermoML archive (doi:10.1021/acs.jced.8b00975):

Test: xn = mol fraction of the nth substance listed
Details: Liquid, Vibrating tube method

C=C(C)C(=O)OCCN(C)C [2-(dimethylamino)ethyl methylpropenoate] + CO
mass density [kg/m3]
Details | 100 kPa | 5000 kPa | 10000 kPa | 15000 kPa | 20000 kPa | 25000 kPa | 30000 kPa | 35000 kPa
293.15 K, x1 = 0.0227 | 806.56 | 811.24 | 815.62 | 819.73 | 823.64 | 827.39 | 831.04 | 834.64
293.15 K, x1 = 0.0807 | 837.79 | 842.2 | 846.3 | 850.16 | 853.82 | 857.37 | 860.86 | 864.36
293.15 K, x1 = 0.1196 | 853.33 | 857.5 | 861.44 | 865.18 | 868.77 | 872.24 | 875.62 | 878.97
293.15 K, x1 = 0.2003 | 877.11 | 881.14 | 884.9 | 888.45 | 891.85 | 895.18 | 898.5 | 901.87
293.15 K, x1 = 0.3189 | 898.63 | 902.57 | 906.24 | 909.71 | 913.03 | 916.26 | 919.46 | 922.7
293.15 K, x1 = 0.4003 | 908.22 | 912.08 | 915.72 | 919.18 | 922.49 | 925.73 | 928.92 | 932.12
293.15 K, x1 = 0.4502 | 912.84 | 916.76 | 920.42 | 923.87 | 927.16 | 930.33 | 933.44 | 936.53
293.15 K, x1 = 0.4914 | 916.03 | 919.88 | 923.47 | 926.87 | 930.13 | 933.31 | 936.47 | 939.66
293.15 K, x1 = 0.5451 | 919.46 | 923.35 | 926.95 | 930.34 | 933.58 | 936.74 | 939.88 | 943.07
293.15 K, x1 = 0.6446 | 924.39 | 928.12 | 931.65 | 935.02 | 938.27 | 941.45 | 944.62 | 947.8
293.15 K, x1 = 0.6899 | 926.07 | 929.92 | 933.48 | 936.82 | 940.01 | 943.12 | 946.23 | 949.4
293.15 K, x1 = 0.8265 | 930.1 | 933.94 | 937.53 | 940.91 | 944.15 | 947.29 | 950.41 | 953.56
293.15 K, x1 = 0.8957 | 931.56 | 935.27 | 938.82 | 942.24 | 945.55 | 948.77 | 951.92 | 955.03
293.15 K, x1 = 0.9213 | 931.89 | 935.76 | 939.37 | 942.76 | 946.01 | 949.17 | 952.32 | 955.5
293.15 K, x1 = 0.977 | 932.63 | 936.53 | 940.13 | 943.52 | 946.76 | 949.92 | 953.08 | 956.32
303.15 K, x1 = 0.0301 | 802.01 | 806.85 | 811.37 | 815.62 | 819.63 | 823.45 | 827.13 | 830.7
303.15 K, x1 = 0.0604 | 818.68 | 823.37 | 827.77 | 831.91 | 835.85 | 839.61 | 843.23 | 846.75
303.15 K, x1 = 0.1003 | 836.41 | 840.87 | 845.1 | 849.12 | 852.97 | 856.67 | 860.27 | 863.78
303.15 K, x1 = 0.1894 | 864.5 | 868.73 | 872.74 | 876.58 | 880.26 | 883.85 | 887.36 | 890.85
303.15 K, x1 = 0.3009 | 886 | 890.03 | 893.92 | 897.69 | 901.34 | 904.9 | 908.38 | 911.78
303.15 K, x1 = 0.4011 | 898.17 | 902.15 | 905.98 | 909.67 | 913.27 | 916.78 | 920.23 | 923.64
303.15 K, x1 = 0.4497 | 902.64 | 906.61 | 910.42 | 914.09 | 917.65 | 921.14 | 924.58 | 928.02
303.15 K, x1 = 0.5004 | 906.39 | 910.32 | 914.1 | 917.76 | 921.33 | 924.83 | 928.29 | 931.73
303.15 K, x1 = 0.5484 | 909.57 | 913.52 | 917.31 | 920.96 | 924.51 | 928 | 931.44 | 934.88
303.15 K, x1 = 0.6026 | 912.38 | 916.33 | 920.1 | 923.74 | 927.27 | 930.75 | 934.2 | 937.68
303.15 K, x1 = 0.701 | 916.45 | 920.39 | 924.17 | 927.81 | 931.36 | 934.84 | 938.28 | 941.72
303.15 K, x1 = 0.7881 | 919.15 | 923.04 | 926.8 | 930.44 | 934.01 | 937.52 | 941.01 | 944.48
303.15 K, x1 = 0.897 | 921.41 | 925.26 | 929.01 | 932.67 | 936.24 | 939.76 | 943.23 | 946.67
303.15 K, x1 = 0.9286 | 922.08 | 926.03 | 929.81 | 933.47 | 937.03 | 940.52 | 943.99 | 947.48
303.15 K, x1 = 0.961 | 922.67 | 926.57 | 930.33 | 933.98 | 937.54 | 941.04 | 944.51 | 947.99
313.15 K, x1 = 0.0303 | 792.52 | 797.34 | 802.01 | 806.47 | 810.73 | 814.85 | 818.84 | 822.75
313.15 K, x1 = 0.0601 | 808.67 | 813.36 | 817.9 | 822.24 | 826.41 | 830.42 | 834.31 | 838.11
313.15 K, x1 = 0.1002 | 826.53 | 831.11 | 835.57 | 839.84 | 843.93 | 847.86 | 851.66 | 855.32
313.15 K, x1 = 0.2005 | 857.05 | 861.4 | 865.62 | 869.66 | 873.55 | 877.31 | 880.98 | 884.59
313.15 K, x1 = 0.3009 | 876.08 | 880.25 | 884.34 | 888.29 | 892.1 | 895.78 | 899.34 | 902.8
313.15 K, x1 = 0.4008 | 888.55 | 892.6 | 896.62 | 900.51 | 904.28 | 907.92 | 911.43 | 914.81
313.15 K, x1 = 0.4516 | 893.1 | 897.1 | 901.09 | 904.98 | 908.76 | 912.41 | 915.91 | 919.27
313.15 K, x1 = 0.49 | 896.14 | 900.12 | 904.09 | 907.97 | 911.73 | 915.36 | 918.87 | 922.22
313.15 K, x1 = 0.552 | 900.13 | 904.12 | 908.1 | 911.97 | 915.72 | 919.34 | 922.83 | 926.18
313.15 K, x1 = 0.5881 | 902.29 | 906.26 | 910.2 | 914.04 | 917.76 | 921.35 | 924.82 | 928.16
313.15 K, x1 = 0.7048 | 907.14 | 911.12 | 915.08 | 918.92 | 922.65 | 926.25 | 929.72 | 933.06
313.15 K, x1 = 0.8042 | 910.23 | 914.21 | 918.18 | 922.04 | 925.78 | 929.4 | 932.87 | 936.18
313.15 K, x1 = 0.8998 | 912.3 | 916.37 | 920.38 | 924.25 | 927.99 | 931.6 | 935.1 | 938.49
313.15 K, x1 = 0.9373 | 913.06 | 917.05 | 921 | 924.83 | 928.56 | 932.18 | 935.71 | 939.17
313.15 K, x1 = 0.9651 | 913.5 | 917.5 | 921.47 | 925.34 | 929.11 | 932.78 | 936.35 | 939.83
